Data as given in PubChem BioAssay AID2742 (NMMLSC, 2010).
Activity calls are given as the source filed them.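 The calls were made as follows: active = fitted half-maximal concentration for changing background-corrected GFP signal at or below a set limit; inactive = the rest.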

Test: modulators of MEP2-GFP levels in yeast, dose response, S. cerevisiae, flow cytometry GFP, MLPCN hits (AID 2742);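 also: GFP tag reports level of MEP2 protein as a downstream target of TOR signalling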
Settings: S. cerevisiae MEP2-GFP strain, flow cytometry fluorescence, 3 h; at 33 µM (top of the series)

SMILES	GFP fluorescence (kMESF), higher = increase
Oc1c(C(Nc2cccc(C(F)(F)F)c2)c2ccncc2)ccc2cccnc12 (centres undefined)	4.71 kMESF (inactive)
COc1ccc(N2CCN(C(=O)c3ccc(Br)cc3)CC2)c([N+](=O)[O-])c1	2.28 kMESF (inactive)
CC1=C/C(=N\OS(=O)(=O)c2ccccc2)C(C)=CC1=O	-2.25 kMESF (inactive)
CCOC(=O)c1cc(-c2ccc(/C=C3/C(=O)NC(=O)C(C#N)=C3C)o2)ccc1Cl	6.22 kMESF (inactive)
CN(C)/C=C/C(=O)c1ccc(-c2ccc(Cl)cc2Cl)o1	2 kMESF (inactive)
Cc1cc(C)c(S(=O)(=O)N2CCC(C(=O)NCc3ccc(Cl)cc3Cl)CC2)c(C)c1	4.68 kMESF (inactive)
CCn1c(=O)c(C(=O)Nc2nc3ccccc3[nH]2)c(O)c2ccccc21	2.38 kMESF (inactive)
CC(=O)Oc1oc(-c2ccccc2)nc1C=Nc1ccc(N(C)C)cc1	3.44 kMESF (inactive)
COc1ccc(-c2cc(C(F)(F)F)nc(S(C)(=O)=O)n2)cc1	5.2 kMESF (inactive)
CCC1(c2ccccc2)ON(c2c(Br)cccc2Br)C1=O (centres undefined)	3.17 kMESF (inactive)
O=C(/C=C/c1ccnc2ccccc12)c1cccs1	4.23 kMESF (inactive)
C[C@H]1C[C@@H](C)C(=O)[C@@H]([C@H](O)CC2CC(=O)NC(=O)C2)C1	3.18 kMESF (inactive)
Fc1cccc(Nc2ncnc3c2cnn3-c2ccccc2)c1	2.97 kMESF (inactive)
CCSc1nnc(NC(=O)c2ccccn2)s1	4.39 kMESF (inactive)
O=C(NC(=S)NNC(=O)c1cnccn1)c1ccc(F)cc1	4.26 kMESF (inactive)
Cc1ccc(N=c2ssnc2Cl)cc1	4.79 kMESF (inactive)
O=C(Oc1c(Cl)cc(Cl)c2cccnc12)c1cccs1	3.47 kMESF (inactive)
COc1ccccc1N=Nc1ccc(O)c2ncccc12	5.16 kMESF (inactive)
N/C(Cc1ccc(Cl)cc1)=N\OC(=O)c1ccccc1	3.99 kMESF (inactive)
CC(C)Oc1ccc(C(=O)/C=C2/C(=O)Nc3ccccc32)cc1	3.75 kMESF (inactive)

SMILES	GFP fluorescence (kMESF), higher = increase
Cc1cc(O)c(C(=O)/C=C/c2ccc(Cl)cc2)c(=O)o1	4.13 kMESF (inactive)
CC[C@@]1(c2ccccc2OC)ON(c2ccccc2C(F)(F)F)C1=O	3.17 kMESF (inactive)
CCOc1ccc(N/N=C(/C#N)C(N)=O)cc1	2.43 kMESF (inactive)
C#CCOCCOCCOCCNc1nc(N2CCN(C(=O)CCCCCCCCCCNC(=O)[C@@H](CCC(=O)O)n3cc(CCCCCN)nn3)CC2)nc(N2CCN(C(=O)CCCCCCCCCCNC(=O)[C@H](CCCCN)n3cc(C[C@@H](C)CC)nn3)CC2)n1	3.84 kMESF (inactive)
Cn1ncc2c(O/N=C(\N)c3ccc(C(C)(C)C)cc3)ncnc21	3.78 kMESF (inactive)
Cc1[nH]n(-c2ncc(-c3ccccc3)s2)c(=O)c1C(c1ccc(Cl)cc1)C(C#N)C#N (centres undefined)	4.02 kMESF (inactive)
COc1ccccc1N=Cc1nc(-c2ccccc2)oc1OC(C)=O	4.52 kMESF (inactive)
Clc1ccc(N=c2ssnc2Cl)cc1	4.8 kMESF (inactive)
O=C1C(Cl)=C(NCCc2ccccc2)C(=O)N1CCc1ccccc1	2.91 kMESF (inactive)
Clc1cnc(N/N=C/c2cccs2)c(Cl)c1	2.89 kMESF (inactive)
O=C1C=C(c2ccc(Cl)cc2)C(=O)N1Nc1ccccc1	5.31 kMESF (inactive)
CC[C@]1(c2ccccc2C)ON(c2ccccc2C(F)(F)F)C1=O	1.97 kMESF (inactive)
CCn1c(/C=C/c2ccc([N+](=O)[O-])o2)nc2ccccc2c1=O	2.26 kMESF (inactive)
C#CCOCCOCCOCCNc1nc(N2CCN(C(=O)CCCCCCCCCCNC(=O)[C@H](CCCCN)n3cc(CCO)nn3)CC2)nc(N2CCN(C(=O)CCCCCCCCCCNC(=O)[C@H](CCCN=C(N)N)n3cc(C[C@@H](C)CC)nn3)CC2)n1	3.54 kMESF (inactive)
Cc1[nH]n(-c2ccccc2)c(=O)c1C(c1ccccc1[N+](=O)[O-])C(C#N)C#N (centres undefined)	4.8 kMESF (inactive)
CCOC(=O)/C(=C\c1cn(C)c2ccccc12)[N+](=O)[O-]	6.34 kMESF (inactive)
COc1ccc(C(=O)NC(=S)NNC(=O)c2cnccn2)cc1	3.91 kMESF (inactive)
CCN(CC)c1ccc(/C=C2/C(=O)c3ccc(C(=O)O)cc3C2=O)cc1	3.08 kMESF (inactive)
O=[N+]([O-])c1ccc(-c2cn3nc(-c4ccccc4)c(-c4ccccc4)nc3n2)cc1	4.08 kMESF (inactive)
CC(Oc1ccc(Br)cc1)C(=O)Nc1nc(-c2ccccn2)cs1 (centres undefined)	4.68 kMESF (inactive)

SMILES	GFP fluorescence (kMESF), higher = increase
COc1ccc([C@@]2(C(C)C)ON(c3ccccc3C(F)(F)F)C2=O)cc1	3.06 kMESF (inactive)
O=[N+]([O-])c1cc(S(=O)(=O)C(F)(F)F)ccc1Sc1nc2ccccc2s1	4.67 kMESF (inactive)
Cc1ccccc1[C@@]1(C)ON(c2ccccc2C(F)(F)F)C1=O	3.31 kMESF (inactive)
CC(=O)Oc1ccc(/C=c2\sc3ncnn3c2=O)cc1	3.91 kMESF (inactive)
COc1ccc(/C=C/C(=O)C2C(=O)C=C(C)OC2=O)cc1O (centres undefined)	5.45 kMESF (inactive)
CCCCc1ccc(/C=C2/C(=O)ON=C2c2ccccc2)s1	2.26 kMESF (inactive)
O=C(Nc1nnc(-c2ccc3c(c2)CCCC3)o1)c1ccc(Cl)cc1Cl	3.77 kMESF (inactive)
Cc1cc(C)nc(S/C=C/C(=O)c2ccccc2)n1	3.2 kMESF (inactive)
COc1ccc(N2C(=O)CC(Sc3ncn[nH]3)C2=O)c(OC)c1 (centres undefined)	3.82 kMESF (inactive)
Cc1cccc(NC(c2ccc(C)s2)c2ccc3ccc(C)nc3c2O)n1 (centres undefined)	8.62 kMESF (inactive)
CCCc1nnc(NC(=O)c2c(O)c3cccc4c3n(c2=O)CCC4)s1	-1.47 kMESF (inactive)
O=C1NC(=O)N(c2ccccc2)C(=O)/C1=C/c1ccc(Sc2ccccc2)o1	4.03 kMESF (inactive)
CC(=O)CSc1ncnc2c1cnn2-c1ccccc1	2.5 kMESF (inactive)
Cc1cccc(Nc2nc(-c3ccccn3)cs2)n1	5.01 kMESF (inactive)
CCOc1ccc(C(Nc2cccnc2)c2cc(Cl)c3cccnc3c2O)cc1 (centres undefined)	4.24 kMESF (inactive)
COc1ccc(-c2cc3cc(C(=O)O)ccn3c2C(=O)c2ccccc2)cc1	3.23 kMESF (inactive)
COc1cc(/C=C/[N+](=O)[O-])ccc1O	3.88 kMESF (inactive)
Cc1ccc(-c2nn(C(C)(C)C)c3ncnc(N)c23)cc1	6.01 kMESF (inactive)
C/C(=N\NC(=O)c1cc2ccccc2cc1O)c1ccccn1	3.61 kMESF (inactive)
